Usually MIC90 stands for the lowest concentration that inhibits either 90% of growth or 90% of the strains tested, depending on the study. One may read the half-life as the time needed for the level to fall by half in the phase considered. A lower half-life goes with rapid decline. The AUC(0-inf) is the area under the concentration-time curve extrapolated to infinity. Low readings indicate less exposure, high ones more exposure. In general, AUC(0-t) refers to the area under the concentration-time curve up to a stated or last time point. A lower AUC(0-t) goes with low exposure. Usually clearance stands for the volume of plasma or blood freed of the substance per unit of time. As a reminder, the MRT is a mean duration of stay, worked out from the concentration-time curve. For orientation: Vd means the apparent volume that relates the amount in the body to the concentration in plasma or blood.

Values after ≈ are worked out from the molar mass of the structure shown. Starred links: 1 amine or outer side, 2 acyl side, 3 side chain; linkers in the order of their positions; H or OH if unused. Positions of bridges follow the written chain, without caps; N, C: chain ends. Non-standard residues stand in square brackets, D forms with d. Residues, ends and D or L forms follow the SMILES beside them. *: point of attachment. dAsp(3R-OH) = N[C@@H](C(=O)O)[C@@H](O)C(=O)O; Palmitoleoyl = CCCCCC/C=C\CCCCCCCC(=O)*; X1 = NC[C@H](O)[C@@H](N[*:1])C(=O)[*:2]; X2 = CCC(C)(O)[C@H](N[*:1])C(=O)[*:2]; d(aIle) = CC[C@H](C)[C@@H](N)C(=O)O; d(aThr) = C[C@@H](O)[C@@H](N)C(=O)O; Myristoyl = CCCCCCCCCCCCCC(=O)*; dOrn = NCCC[C@@H](N)C(=O)O; X3 = CC[C@H](C)CCCCC(=O)*; hSer = N[C@@H](CCO)C(=O)O; Dab = NCC[C@H](N)C(=O)O

Here are results for four molecules from article PMC10714751 (Microbiology Spectrum, 2023).

The test system of data set [1] is A. baumannii AB5075UW ΔlpxC::ISAbaI. Description: Broth dilution assay against LpxC-deficient mutant. The conditions noted are these: MIC90 ΔlpxC vs WT 5075UW, Fig. 2A. (Broth dilution looks for growth in wells or tubes with falling amounts of substance.)
In data set [2] the test system is Keio E. coli mlaA knockouts (ΔmlaA). Description: Broth dilution assay against Keio mlaA knockouts. The conditions noted are these: triplicate, three biological replicates.
For another data set, the system named is pGDP2-MCR-1 in C600. Description: Antibiotic susceptibility testing of MCR-1-expressing E. coli. Conditions: broth dilution, MTT.
Data set [3] has as its system E. coli DH5α. Description: Antimicrobial broth dilution assay.
Data set [4] has as its system evolved turnercyclamycin B-resistant E. coli DH5α. Nature of the data set: Broth dilution assay against evolved resistant strains.
For the next data set, the system named is A. baylyi ADP1 ΔpldA. Nature of the data set: Broth dilution assay against pldA knockout. The conditions noted are these: Fig. S4.
The next data set relates to pGDP2-MCR-1 in DH5α. Nature of the data set: Antibiotic susceptibility testing of MCR-1-expressing E. coli.
In another data set the test system is E. coli ΔompC, ΔompF. Description: Broth dilution assay against OmpC and OmpF knockouts.
The subject of a further data set is pBR322 in C600. Nature of the data set: Antimicrobial broth dilution assay, empty vector control. Conditions: MTT.
Another data set has as its system Yersinia pestis. Conditions: cited from earlier work.
The subject of the next data set is pBR322 in DH5α. Description: Antimicrobial broth dilution assay, empty vector control. The conditions noted are these: MTT.
The next data set has as its system E. coli C600. Nature of the data set: Antimicrobial broth dilution assay. The conditions noted are these: MTT.
For data set [5], the system named is A. baumannii Tn26-mlaA insertion strains AB8497, AB8498, AB8499. Description: Broth dilution assay against mlaA transposon mutants. The conditions noted are these: for sensitivity of the mlaA mutants in comparison to the wild type: AB8497, AB8498, AB8499; for change of MIC90 against AB8497 versus wild type: mlaA insertion at position 132, twofold dilutions from 20 µg/mL; for change of MIC90 against AB8497 versus wild type / change of MIC90 against AB8499 versus wild type: 10 µg/mL tetracycline; for change of MIC90 against AB8499 versus wild type: mlaA insertion at position 507.

In data set [6] the test system is E. coli DH5α. Nature of the data set: Evolution of turnercyclamycin-resistant E. coli by sublethal dose passaging. The conditions noted are these: for time of exposure to reach 32× the original MIC90: daily serial passaging, up to 63 d.
A short description of a further data set: Pharmacokinetics in mice. The conditions noted are these: 5mg/kg IV, plasma, LC-MS/MS. It counts as in vivo. As to the method: Eurofins used mice from BioLASCO Taiwan.
Protocols were performed at Eurofins (Taiwan). Turnercyclamycin A in plasma was measured by liquid chromatography-tandem mass spectrometry, and graphs illustrating the mean plasma concentrations (mean ± SD) over time were generated. PK parameters were obtained using non-compartmental analysis of the plasma data with WinNonlin.

The mark [7] stands for this setting: female, BALB/c, mouse, mice, non-compartmental analysis.

Take `CC[C@H](C)CCCCC(=O)N[C@@H](CCN)C(=O)N[C@H](C(=O)N[C@@H](CCN)C(=O)N[C@H]1CCNC(=O)[C@H]([C@@H](C)O)NC(=O)[C@H](CCN)NC(=O)[C@H](CCN)NC(=O)[C@H](CC(C)C)NC(=O)[C@@H](CC(C)C)NC(=O)[C@H](CCN)NC1=O)[C@@H](C)O` [Colistin, colistin (polymyxin E)] (X3-[Dab]T[Dab][Dab][Dab][dL]L[Dab][Dab]T; lactam 4-C): the “loss in susceptibility of A. baumannii ΔlpxC in comparison to the wild-type strain” value in data set [1] is “greater than fourfold”. Further, the MIC90 in [2] is reported as 0.25 µg/mL (≈ 0.214 µM); against pGDP2-MCR-1 in C600 it was 8 µg/mL (≈ 6.84 µM); in the data set on E. coli DH5α [3] (DH5α WT (Table 2)), 0.5 µg/mL (≈ 0.428 µM); in the data set with E. coli DH5α [3] (text summary: both E. coli parent and vector-control strains (DH5α and C600)), 0.5 µg/mL (≈ 0.428 µM); in data set [4] (Strain 1), 0.5 µg/mL (≈ 0.428 µM); in data set [4] (Strain 2 (found contaminated with Staphylococcus)), 0.5 µg/mL (≈ 0.428 µM). Moreover, the MIC90 was found to be 0.5 µg/mL (≈ 0.428 µM) in data set [4] (Strain 3); 0.5 µg/mL (≈ 0.428 µM) in [4] (Strain 4); 0.5 µg/mL (≈ 0.428 µM) in data set [4] (Strain 5); 8 µg/mL (≈ 6.84 µM) with pGDP2-MCR-1 in DH5α (text summary: strains expressing mcr-1 (DH5α and C600)); 1 µg/mL (≈ 0.855 µM) against pBR322 in C600; 0.5 µg/mL (≈ 0.428 µM) in the data set on pBR322 in DH5α. Moreover, the MIC90 with E. coli C600 is 0.5 µg/mL (≈ 0.428 µM). Moreover, the “resistance of ΔpldA strain compared with WT A. baylyi ADP1” value in the data set with A. baylyi ADP1 ΔpldA is “did not significantly demonstrate resistance”. Also, the “loss of potency against strains expressing mcr-1 versus parent” value in the data set with pGDP2-MCR-1 in DH5α (MIC90 ratio mcr-1 strains / parent strains) worked out at 16 fold. Besides, the “resistance of OmpC and OmpF knockouts” value with E. coli ΔompC, ΔompF was “not resistant”. Further, the “susceptibility of Yersinia pestis after LPS modification with 4-amino-4-deoxy-L-arabinose” value in the data set on Yersinia pestis was “blocked”. The “sensitivity of the mlaA mutants in comparison to the wild type” value in data set [5] is reported as “potentially slightly more sensitive”.

Consider `CCCCCC/C=C\CCCCCCCC(=O)N[C@H](CCCN)C(=O)N[C@@H](CO)C(=O)N[C@H](C(=O)N[C@@H](C(=O)N[C@@H](C(=O)N[C@H]1C(=O)NCC(=O)N[C@@H](C(C)(O)CC)C(=O)N[C@H]([C@@H](C)CC)C(=O)N[C@@H](CCO)C(=O)N[C@@H](C)C(=O)N[C@H]([C@@H](C)CC)C(=O)N[C@@H](CCC(=O)O)C(=O)O[C@@H]1C)[C@@H](O)CN)[C@@H](O)C(=O)O)C(C)C` (stereo partly drawn) [Turnercyclamycin B] (Palmitoleoyl-[dOrn]SV[dAsp(3R-OH)][X1][d(aThr)]G[X2][d(aIle)][hSer]A[d(aIle)]E; ester 6-C), for which the “time of exposure to reach 32× the original MIC90” value in the data set with E. coli DH5α [6] is 8 to 14 days. Besides, in data set [5], the “change of MIC90 against AB8497 versus wild type” value is recorded as “doubled” and the “change of MIC90 against AB8499 versus wild type” value is “fourfold”.

With `CCCCCCCCCCCCCC(=O)N[C@H](CCCN)C(=O)N[C@@H](CO)C(=O)N[C@H](C(=O)N[C@@H](C(=O)N[C@@H](C(=O)N[C@H]1C(=O)NCC(=O)N[C@@H](C(C)(O)CC)C(=O)N[C@H]([C@@H](C)CC)C(=O)N[C@@H](CCO)C(=O)N[C@@H](C)C(=O)N[C@H]([C@@H](C)CC)C(=O)N[C@@H](CCC(=O)O)C(=O)O[C@@H]1C)[C@@H](O)CN)[C@@H](O)C(=O)O)C(C)C` (stereo partly drawn) [Turnercyclamycin A] (Myristoyl-[dOrn]SV[dAsp(3R-OH)][X1][d(aThr)]G[X2][d(aIle)][hSer]A[d(aIle)]E; ester 6-C), the “loss in susceptibility of A. baumannii ΔlpxC in comparison to the wild-type strain” value in data set [1] is reported as “greater than fourfold”. Moreover, in the data set with E. coli DH5α [6] (daily passaging at sub-MIC for 63 d), the “resistance reached by serial passaging (× original MIC90)” value is given as 8 ×. In the data set with E. coli DH5α [6], the “time of exposure to reach 32× the original MIC90” value is above 63 days. The same molecule came in with an AUC/D in “Pharmacokinetics in mice” (mice, non-compartmental analysis) of 58080 kg·ng·h/mL/mg. The half-life in the data set “Pharmacokinetics in mice” (BALB/c, mouse, ALB/c female mice, non-compartmental analysis (WinNonlin)) is 4.35 h. In the data set “Pharmacokinetics in mice” (setting [7]), this molecule gave an area under the curve AUC(0-inf) of 290 µg·h/mL, an area under the curve AUC(0-t) of 285 µg·h/mL and a C0 of 33700 ng/mL. For the same molecule, the clearance in “Pharmacokinetics in mice” (female, BALB/c, mouse, mice, non-compartmental analysis, read-out: CL (clearance rate) (converted)) was 0.29 mL/min/kg. Moreover, the MRT in “Pharmacokinetics in mice” (female, BALB/c, mouse, mice, non-compartmental analysis, read-out: MRT (mean residence time)) is 5.83 h. The Vd in “Pharmacokinetics in mice” (female, BALB/c, mouse, mice, non-compartmental analysis, read-out: VSS (Vd at steady state)) came to 0.1 L/kg. In addition, the “sensitivity of turnercyclamycin B-resistant strains compared with wild type” value in data set [4] (Table 2, Fig. S3) is “more sensitive”. In addition, in [5], the “change of MIC90 against AB8497 versus wild type” value is recorded as “retained wild-type potency” and the “change of MIC90 against AB8499 versus wild type” value was “retained wild-type potency”.

On to `CO[C@H]1/C=C/O[C@@]2(C)Oc3c(C)c(O)c4c(O)c(cc(O)c4c3C2=O)NC(=O)/C(C)=C\C=C\[C@H](C)[C@H](O)[C@@H](C)[C@@H](O)[C@@H](C)[C@H](OC(C)=O)[C@@H]1C` [Rifamycin, rifamycin], for which, in [5], the “sensitivity of the mlaA mutants in comparison to the wild type” value was “increase in sensitivity”.
